How the values were obtained:
[1] = Body weight change in MV-4-11 xenograft mice; format: in vivo, female BALB/c nude mice; settings: GFH009 maleate QW or BIW; enitociclib 10.0 mg/kg QW; i.v.
Method: Figure 7 Effect of GFH009 on body weight change in MV-4-11 xenografts. Body weight change of MV-4-11 xenograft (Figure 6) are expressed as mean ± SEM. ^* […], ^** P < 0.01, ^**** P < 0.0001, two-way ANOVA with Dunnett’s multiple comparisons test analysis compared to the vehicle-treated (control) group.
(§1) Animals dosed BIW were given treatments on 2 consecutive days. Weights were recorded for each mouse every day and tumor volumes assessed 3 times a week. Total treatment administration occurred across 3 consecutive weeks.
Relative change in body weight (RCBW) was determined as RCBW (%) = (Bwi – BW0)/BW0 × 100, where Bwi is body weight of a given mouse on a given day, and BW0 is initial body weight on the day they were assigned to a treatment group.

MV-4-11 xenograft = assay: Anti-tumor efficacy in subcutaneous MV-4-11 xenograft model; format: in vivo, female BALB/c nude mice; settings: i.v.; GFH009 maleate 2.5, 5.0, 10.0 mg/kg QW or BIW; enitociclib 10.0 mg/kg QW; 3 weeks
Method: Figure 6 Anti-tumor efficacy of GFH009 in MV-4-11 xenograft model. MV-4-11 xenograft in female BALB/c nude mice were treated with GFH009 or enitociclib at the indicated doses (n = 8 mice per group). Results are expressed as mean ± SEM. ^* P < 0.05, ^**** P < 0.0001, two-way ANOVA with Dunnett’s multiple comparisons test analysis compared to Vehicle control group.
In vivo studies of tumor suppression were conducted in female BALB/c nude mice (Beijing Vital River Laboratory Animal Technology Co, Ltd., Changping, Beijing, China) bearing MV-4-11 xenografts (ATCC, Rockville, MD, USA). Each mouse was inoculated subcutaneously into the right dorsal-region with 5.0 × 10^6 cultured MV-4-11 cells in a total volume of 0.2 ml solution and allowed to develop xenograft tumors. Once tumor size had reached […], mice were divided into groups to receive 1 of 8 different treatment preparations dosed intravenously via the tail vein (Table 2). […] Enitociclib was administered as a 1.0 mg/mL solution in ultrapure water with 5% DMSO. Vehicle control was 50 mM PBS with no dissolved treatment drug.
as §1
Subcutaneous tumor volume (TV) was calculated as TV = (L × W^2)/2, where L was the length and W was the width of the tumor [11]. […] TGI was calculated as TGI (%) = (1 – avTi-0/ avCi-0)) × 100, where avTi-0 is the mean TV of the treatment group on a given day minus the mean TV of this treatment group on the day of group assignment, and avCi-0 is the mean TV of the vehicle control group on a given day minus the mean TV of the vehicle control group on the day of group assignment.
Tumor volume data was subjected to a base-10 logarithmic transformation and subsequent comparisons of TV across groups was made using two-way ANOVA (Dunnett’s multiple comparisons test). All plotting and statistical analyses were conducted using GraphPad Prism 6.00 (GraphPad Software).

SMILES: COc1cc(F)ccc1-c1cc(Nc2cc(CS(C)(=N)=O)ccn2)ncc1F (centres unmarked) [enitociclib, reference compound]
- Body weight of the mice during the administration period [1]: decreased dramatically
- Tumor growth (total volume) compared to the vehicle control (MV-4-11 xenograft): inhibited tumor growth

Source: PMC10732257 (Oncotarget, 2023)
